Assay: Example 1: phase 3 trial, enavogliflozin 0.3 mg once a day as monotherapy vs placebo for 24 weeks in patients with type 2 diabetes (HbA1c, FPG, C-peptide, body weight, lipids, blood pressure, HOMA, UACR, UGCR, adiponectin, leptin, safety)
Type: in vivo, human
Settings: for Adiponectin, Mean (SD) / Adiponectin, Median / HOMA-IR, Mean (SD) / HOMA-IR, Median / HOMA-β, Mean (SD) / HOMA-β, Median / Leptin, Mean (SD) / Leptin, Median / UACR, Mean (SD) / UACR, Median / UGCR, Mean (SD) / UGCR, Median / Change from baseline in HOMA-IR, ANCOVA LS mean (SE) / Change from baseline in HOMA-IR, Mean (SD) / Change from baseline in HOMA-IR, Median / Change from baseline in HOMA-β, ANCOVA LS mean (SE) / Change from baseline in HOMA-β, Mean (SD) / Change from baseline in HOMA-β, Median / Change from baseline in UACR, ANCOVA LS mean (SE) / Change from baseline in UACR, Mean (SD) / Change from baseline in UACR, Median / Change from baseline in UGCR, ANCOVA LS mean (SE) / Change from baseline in UGCR, Mean (SD) / Change from baseline in UGCR, Median / Change from baseline in adiponectin, ANCOVA LS mean (SE) / Change from baseline in adiponectin, Mean (SD) / Change from baseline in adiponectin, Median / Change from baseline in leptin, ANCOVA LS mean (SE) / Change from baseline in leptin, Mean (SD) / Change from baseline in leptin, Median / Change from baseline in HOMA-IR, ANCOVA LS mean difference / Change from baseline in HOMA-β, ANCOVA LS mean difference / Change from baseline in UACR, ANCOVA LS mean difference / Change from baseline in UGCR, ANCOVA LS mean difference / Change from baseline in adiponectin, ANCOVA LS mean difference / Change from baseline in leptin, ANCOVA LS mean difference: LOCF, full analysis set; for Adiponectin, Mean (SD) / Adiponectin, Median / HOMA-IR, Mean (SD) / HOMA-IR, Median / HOMA-β, Mean (SD) / HOMA-β, Median / Leptin, Mean (SD) / Leptin, Median / UACR, Mean (SD) / UACR, Median / UGCR, Mean (SD) / UGCR, Median / Change from baseline in HOMA-IR, ANCOVA LS mean (SE) / Change from baseline in HOMA-IR, Mean (SD) / Change from baseline in HOMA-IR, Median / Change from baseline in HOMA-β, ANCOVA LS mean (SE) / Change from baseline in HOMA-β, Mean (SD) / Change from baseline in HOMA-β, Median / Change from baseline in UACR, ANCOVA LS mean (SE) / Change from baseline in UACR, Mean (SD) / Change from baseline in UACR, Median / Change from baseline in UGCR, ANCOVA LS mean (SE) / Change from baseline in UGCR, Mean (SD) / Change from baseline in UGCR, Median / Change from baseline in adiponectin, ANCOVA LS mean (SE) / Change from baseline in adiponectin, Mean (SD) / Change from baseline in adiponectin, Median / Change from baseline in leptin, ANCOVA LS mean (SE) / Change from baseline in leptin, Mean (SD) / Change from baseline in leptin, Median: 0.3 mg; for Change from baseline in HOMA-IR, ANCOVA LS mean difference / Change from baseline in HOMA-β, ANCOVA LS mean difference / Change from baseline in UACR, ANCOVA LS mean difference / Change from baseline in UGCR, ANCOVA LS mean difference / Change from baseline in adiponectin, ANCOVA LS mean difference / Change from baseline in leptin, ANCOVA LS mean difference: 0.3 mg vs placebo
Experimental: When a subject voluntarily gave written consent to participate in this clinical trial, a screening test was conducted. […] However, when the administration of a hypoglycemic agent was interrupted before the clinical trial Visit 1 (screening), at least an 8-week washout period, including the discontinuation period, was required, and during this period, a stable diet and exercise program was followed. Naïve patients were screened without a separate washout period, and the criteria for naïve patients were defined as patients who had not been administered hypoglycemic agents within 24 weeks prior to the date of obtaining written consent. […] In addition, they were instructed to maintain regular exercise and dietary control starting from 8 weeks prior to screening without changing their daily life patterns during the clinical trial period.

## OC[C@H]1O[C@@H](c2cc(Cc3ccc(C4CC4)cc3)c(Cl)c3c2CCO3)[C@H](O)[C@@H](O)[C@@H]1O [Enavogliflozin, (2S,3R,4R,5S,6R)-2-(7-chloro-6 (4-cyclopropylbenzyl)-2,3-dihydrobenzofuran-4-yl)-6-(hydroxymethyl)tetrahydro-2H-pyran-3,4,5-triol]
24 weeks, vs placebo
  Occurrence rates of adverse events or adverse drug reactions compared to the control: no statistically significant differences
Baseline
  Adiponectin, Mean (SD): 7.79 µg/mL
  Adiponectin, Median: 6.22 µg/mL
  HOMA-IR, Mean (SD): 3.47
  HOMA-IR, Median: 2.67
  HOMA-β, Mean (SD): 46.40
  HOMA-β, Median: 36.25
  Leptin, Mean (SD): 11.16 ng/mL
  Leptin, Median: 6.94 ng/mL
  UACR, Mean (SD): 28200 mg/kg
  UACR, Median: 10.50 g/kg
  UGCR, Mean (SD): 1.42 mg/mg
  UGCR, Median: 10.11 mg/mg
Week 6
  Adiponectin, Mean (SD): 7.91 µg/mL
  Adiponectin, Median: 6.67 µg/mL
  Change from baseline in HOMA-IR, ANCOVA LS mean (SE): −1.75
  Change from baseline in HOMA-IR, Mean (SD): −1.53
  Change from baseline in HOMA-IR, Median: −0.96
  Change from baseline in HOMA-β, ANCOVA LS mean (SE): 3.20
  Change from baseline in HOMA-β, Mean (SD): 3.95
  Change from baseline in HOMA-β, Median: 3.10
  Change from baseline in UACR, ANCOVA LS mean (SE): 1.45 g/kg
  Change from baseline in UACR, Mean (SD): 3660 mg/kg
  Change from baseline in UACR, Median: 0.80 g/kg
  Change from baseline in UGCR, ANCOVA LS mean (SE): 55.38 mg/mg
  Change from baseline in UGCR, Mean (SD): 53.23 mg/mg
  Change from baseline in UGCR, Median: 50.85 mg/mg
  Change from baseline in adiponectin, ANCOVA LS mean (SE): 0.22 µg/mL
  Change from baseline in adiponectin, Mean (SD): 0.31 µg/mL
  Change from baseline in adiponectin, Median: 0.48 µg/mL
  Change from baseline in leptin, ANCOVA LS mean (SE): -2.82 ng/mL
  Change from baseline in leptin, Mean (SD): -2.48 ng/mL
  Change from baseline in leptin, Median: -1.13 ng/mL
  HOMA-IR, Mean (SD): 1.96
  HOMA-IR, Median: 1.62
  HOMA-β, Mean (SD): 50.65
  HOMA-β, Median: 40.10
  Leptin, Mean (SD): 8.61 ng/mL
  Leptin, Median: 5.75 ng/mL
  UACR, Mean (SD): 32120 mg/kg
  UACR, Median: 11.30 g/kg
  UGCR, Mean (SD): 54.67 mg/mg
  UGCR, Median: 51.06 mg/mg
  Change from baseline in HOMA-IR, ANCOVA LS mean difference: −1.81
  Change from baseline in HOMA-β, ANCOVA LS mean difference: 3.30
  Change from baseline in UACR, ANCOVA LS mean difference: 7.96 g/kg
  Change from baseline in UGCR, ANCOVA LS mean difference: 52.97 mg/mg
  Change from baseline in adiponectin, ANCOVA LS mean difference: 0.26 µg/mL
  Change from baseline in leptin, ANCOVA LS mean difference: -2.89 ng/mL
Week 12
  Adiponectin, Mean (SD): 8.57 µg/mL
  Adiponectin, Median: 6.59 µg/mL
  Change from baseline in HOMA-IR, ANCOVA LS mean (SE): −1.60
  Change from baseline in HOMA-IR, Mean (SD): −1.50
  Change from baseline in HOMA-IR, Median: −1.09
  Change from baseline in HOMA-β, ANCOVA LS mean (SE): 13.51
  Change from baseline in HOMA-β, Mean (SD): 12.44
  Change from baseline in HOMA-β, Median: 7.15
  Change from baseline in UACR, ANCOVA LS mean (SE): -4.45 g/kg
  Change from baseline in UACR, Mean (SD): -7760 mg/kg
  Change from baseline in UACR, Median: 0.60 g/kg
  Change from baseline in UGCR, ANCOVA LS mean (SE): 52.58 mg/mg
  Change from baseline in UGCR, Mean (SD): 52.43 mg/mg
  Change from baseline in UGCR, Median: 51.21 mg/mg
  Change from baseline in adiponectin, ANCOVA LS mean (SE): 0.94 µg/mL
  Change from baseline in adiponectin, Mean (SD): 0.78 µg/mL
  Change from baseline in adiponectin, Median: 0.65 µg/mL
  Change from baseline in leptin, ANCOVA LS mean (SE): -2.35 ng/mL
  Change from baseline in leptin, Mean (SD): -2.38 ng/mL
  Change from baseline in leptin, Median: -1.15 ng/mL
  HOMA-IR, Mean (SD): 1.97
  HOMA-IR, Median: 1.53
  HOMA-β, Mean (SD): 58.83
  HOMA-β, Median: 42.30
  Leptin, Mean (SD): 8.78 ng/mL
  Leptin, Median: 6.26 ng/mL
  UACR, Mean (SD): 20430 mg/kg
  UACR, Median: 11.15 g/kg
  UGCR, Mean (SD): 53.85 mg/mg
  UGCR, Median: 51.70 mg/mg
  Change from baseline in HOMA-IR, ANCOVA LS mean difference: −1.72
  Change from baseline in HOMA-β, ANCOVA LS mean difference: 12.09
  Change from baseline in UACR, ANCOVA LS mean difference: -15.16 g/kg
  Change from baseline in UGCR, ANCOVA LS mean difference: 51.21 mg/mg
  Change from baseline in adiponectin, ANCOVA LS mean difference: 0.67 µg/mL
  Change from baseline in leptin, ANCOVA LS mean difference: -3.17 ng/mL
Week 18
  Adiponectin, Mean (SD): 8.62 µg/mL
  Adiponectin, Median: 6.76 µg/mL
  Change from baseline in HOMA-IR, ANCOVA LS mean (SE): −1.55
  Change from baseline in HOMA-IR, Mean (SD): −1.48
